Patent US8946426B2, “Substituted bicyclic heterocyclic compounds as gamma secretase modulators” (Janssen Pharmaceuticals, Inc., priority 2009, dated 2015)
pIC50: −log10 of the molar value.

What was measured:
Aβtotal [1] = test: Method 1: Aβtotal sandwich ELISA in supernatant of SKNBE2 cells carrying APP 695-wild type (Tables 7a, 7b); format: cell-based
How it was run: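 SKNBE2 cells expressing wild-type APP695 were exposed to compound for 18 Hours in Ultraculture with 1% glutamine. Aβtotal in the supernatant was read by 6E10-capture/biotinylated 4G8 sandwich ELISA with a fluorogenic peroxidase read-out, and WST-1 checked toxicity. IC50 came from a 4-parameter fit of percent inhibition or percent of control versus concentration.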

Aβ42 [2] = test: Method 1: Aβ42 sandwich ELISA in supernatant of SKNBE2 cells carrying APP 695-wild type (Tables 7a, 7b); format: cell-based
How it was run: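 SKNBE2 cells expressing wild-type APP695 were exposed to compound for 18 hours. Secreted Aβ42 was quantified by sandwich ELISA with C-terminal-selective capture, biotinylated 3D6 detection and TMB read-out at 450 nm. IC50 came from 4-parameter fits of % inhibition or % of untreated control; WST-1 monitored toxicity.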

Aβtotal [3] = test: In vivo efficacy: Aβtotal lowering in brain after single oral dose (Table 8); conditions: mouse brain soluble fraction, ELISA, compared to untreated animals
Excerpt: (§1) To determine whether acute administration of an Aβ42 lowering agent would reduce Aβ42 levels in vivo, non-transgenic rodents, e.g. mice or rats were used. Alternatively, two to three month old Tg2576 mice expressing APP695 containing the “Swedish” variant can be used or a transgenic mouse model developed by Dr. Fred Van Leuven (K.U.Leuven, Belgium) and co-workers, with neuron-specific expression of a clinical mutant of the human amyloid precursor protein [V7171] (Moechars et al., 1999 J. Biol. Chem. 274, 6483). Young transgenic mice have high levels of Aβ in the brain but no detectable Aβ deposition. At approximately 6-8 months of age, the transgenic mice start to display spontaneous, progressive accumulation of β-amyloid (Aβ) in the brain, eventually resulting in amyloid plaques within the subiculum, hippocampus and cortex. Animals treated with the Aβ42 lowering agent were examined and compared to those untreated or treated with vehicle and brain levels of soluble Aβ42 and total Aβ would be quantitated by standard techniques, for example, using ELISA. Treatment periods varied from hours to days and were adjusted based on the results of the Aβ42 lowering once a time course of onset of effect could be established.
(§2) A typical protocol for measuring Aβ42 lowering in vivo is shown but it is only one of many variations that could be used to optimize the levels of detectable Aβ. For example, Aβ42 lowering compounds were formulated in 20% of Captisol® (a sulfobutyl ether of β-cyclodextrin) in water or 20% hydroxypropyl β cyclodextrin. The Aβ42 lowering agents were administered as a single oral dose or by any acceptable route of administration to overnight fasted animals. After four hours, the animals were sacrificed and Aβ42 levels were analysed.
(§3) Blood was collected by decapitation and exsanguinations in EDTA-treated collection tubes. Blood was centrifuged at 1900 g for 10 min at 4° C. and the plasma recovered and flash frozen for later analysis. The brain was removed from the cranium and hindbrain. The cerebellum was removed and the left and right hemisphere were separated. The left hemisphere was stored at −18° C. for quantitative analysis of test compound levels. The right hemisphere was rinsed with phosphate-buffered saline (PBS) buffer and immediately frozen on dry ice and stored at −80° C. until homogenization for biochemical assays.
(§4) Mouse brains were resuspended in 10 volumes of 0.4% DEA (diethylamine)/50 mM NaCl pH 10 (for non-transgenic animals) or 0.1% 3-[(3-cholamidopropyl)-dimethyl-ammonio]-1-propanesulfonate (CHAPS) in tris buffered saline (TBS) (for transgenic animals) containing protease inhibitors (Roche-11873580001 or 04693159000 per gram of tissue, e.g. for 0.158 g brain, add 1.58 ml of 0.4% DEA. All samples were sonicated for 30 sec on ice at 20% power output (pulse mode). Homogenates were centrifuged at 221.300×g for 50 min. The resulting high speed supernatants were then transferred to fresh tubes and were optionally further purified before the next step. A portion of the supernatant was neutralized with 10% 0.5 M Tris-HCl and this was used to quantify Aβtotal.
(§5) The obtained supernatants were purified with Water Oasis HLB reverse phase columns (Waters Corp., Milford, Mass.) to remove non-specific immunoreactive material from the brain lysates prior subsequent Aβ detection. Using a vacuum manifold, all solutions were passed through the columns at a rate of approximately 1 ml per minute, so the vacuum pressure was adjusted accordingly throughout the procedure. Columns were preconditioned with 1 ml of 100% MeOH, before equilibration with 1 ml of H2O. Non-neutralized brain lysates were loaded onto the columns. The loaded samples were then washed twice with the first wash performed with 1 ml of 5% MeOH, and the second wash with 1 ml of 30% MeOH. Finally, the Aβ was eluted from the columns and into 100×30 mm glass tubes, with a solution of 90% MeOH with 2% NH4OH. […]

Aβ42 [4] = test: In vivo efficacy: Aβ42 lowering in brain after single oral dose (Table 8); conditions: mouse brain soluble fraction, ELISA, compared to untreated animals
Excerpt: as §1, §2, §3, §4, §5

Aβtotal [5] = test: Method 2: Aβtotal Alphalisa in supernatant of SKNBE2 cells carrying APP 695-wild type (Table 7c); format: cell-based; conditions: Method 2, Alphalisa, overnight incubation
Protocol: (§6) Screening was carried out using SKNBE2 cells carrying the APP 695-wild type, grown in Dulbecco's Modified Eagle's Medium/Nutrient mixture F-12 (DMEM/NUT-mix F-12) (HAM) provided by Invitrogen (cat no. 10371-029) containing 5% Serum/Fe supplemented with 1% non-essential amino acids, 1-glutamine 2 mM, Hepes 15 mM, penicillin 50 U/ml (units/ml) en streptomycin 50 μg/ml. Cells were grown to near confluency.
(§7) The screening was performed using a modification of the assay as described in Citron et al (1997) Nature Medicine 3: 67. Briefly, cells were plated in a 384-well plate at 10^4 cells/well in Ultraculture (Lonza, BE12-725F) supplemented with 1% glutamine (Invitrogen, 25030-024), 1% non-essential amino acid (NEAA), penicillin 50 U/ml en streptomycin 50 μg/ml in the presence of test compound at different test concentrations. The cell/compound mixture was incubated overnight at 37° C., 5% CO2. The next day the media were assayed by two sandwich immuno-assays, for Aβ42 and Aβtotal.
(§8) Aβtotal and Aβ42 concentrations were quantified in the cell supernatant using the Aphalisa technology (Perkin Elmer). Alphalisa is a sandwich assay using biotinylated antibody attached to streptavidin coated donorbeads and antibody conjugated to acceptor beads. In the presence of antigen, the beads come into close proximity. The excitation of the donor beads provokes the release of singlet oxygen molecules that trigger a cascade of energy transfer in the acceptor beads, resulting in light emission. To quantify the amount of Aβ42 in the cell supernatant, monoclonal antibody specific to the C-terminus of Aβ42 (JRF/cAβ42/26) was coupled to the receptor beads and biotinylated antibody specific to the N-terminus of Aβ (JRF/AβN/25) was used to react with the donor beads. To quantify the amount of Aβtotal in the cell supernatant, monoclonal antibody specific to the N-terminus of Aβ (JRF/AβN/25) was coupled to the receptor beads and biotinylated antibody specific to the mid region of Aβ (biotinylated 4G8) was used to react with the donor beads.
(§9) To obtain the values reported in Table 7c, the data were calculated as percentage of the maximum amount of amyloid Beta 42 measured in the absence of the test compound. The sigmoidal dose response curves were analyzed using non-linear regression analysis with percentage of the control plotted against the log concentration of the compound. A 4-parameter equation was used to determine the IC50.

Aβ42 [6] = test: Method 2: Aβ42 Alphalisa in supernatant of SKNBE2 cells carrying APP 695-wild type (Table 7c); format: cell-based; conditions: Method 2, Alphalisa, overnight incubation
Protocol: as §6, §7, §8, §9

[7] = Homo sapiens, SKNBE2, Table 7b, averaged IC50, non-linear regression of percentage of control vs log concentration, 4-parameter equation
[8] = Homo sapiens, Table 7a, SKNBE2 cells, compounds 18 h, XLfit 4-parameter fit of percent inhibition, top/bottom fixed to 100/0, hill slope 1
[9] = Table 7a, SKNBE2 cells, compounds 18 h, XLfit 4-parameter fit of percent inhibition, top/bottom fixed to 100/0, hill slope 1
[10] = Table 7b, averaged IC50, non-linear regression of percentage of control vs log concentration, 4-parameter equation

SMILES | pIC50 (Aβtotal [1]; [10]) | pIC50 (Aβ42 [2]; [10]) | Aβtotal (% Ctrl)_Mean (Aβtotal [3]) | Aβ42 (% Ctrl)_Mean (Aβ42 [4]) | further results
COc1cc(Nc2cccn3cc(-c4ccc(F)cc4)nc23)ccc1-c1ocnc1C [Compound 1] | – | – | – | – | melting point: 163.2 °C; pIC50 (Aβtotal [1]; [7]): < 5.30; pIC50 (Aβtotal [1]; [8]): < 5.30; pIC50 (Aβ42 [2]; [7]): 6.70; pIC50 (Aβ42 [2]; [8]): 6.69
COc1cccc(-c2nc3c(Nc4ccc(-c5ocnc5C)c(OC)c4)cccn3c2C)c1 [Compound 2] | – | – | 104 % Ctrl | 95 % Ctrl | pIC50 (Aβtotal [1]; [7]): < 5.52; pIC50 (Aβtotal [1]; [8]): < 5.52; pIC50 (Aβ42 [2]; [7]): 7.70; pIC50 (Aβ42 [2]; [8]): 7.66
COc1cc(Nc2cccn3cc(-c4ccc(F)cc4)nc23)ccc1-c1cnc(C)o1 [Compound 3] | – | – | – | – | melting point: 219.1 °C; pIC50 (Aβtotal [1]; [7]): < 5.00; pIC50 (Aβtotal [1]; [8]): < 5.00; pIC50 (Aβ42 [2]; [7]): 6.75; pIC50 (Aβ42 [2]; [8]): 6.71
COc1cc(Nc2cccc3c2nc(-c2ccc(F)cc2)n3C(C)C)ccc1-c1cnc(C)o1.Cl.Cl [Compound 25] | < 5.52 | 7.64 | 96 % Ctrl | 76 % Ctrl | pIC50 (Aβtotal [1]; [9]): < 5.52; pIC50 (Aβ42 [2]; [9]): 7.62
COc1cc(Nc2nccc3c2nc(-c2ccc(F)cc2F)n3C)ccc1-c1cnc(C)o1 [Compound 31] | < 5.52 | 7.11 | 102 % Ctrl | 91 % Ctrl | pIC50 (Aβtotal [1]; [9]): < 5.52; pIC50 (Aβ42 [2]; [9]): 7.12
COc1ccc(C)c(-c2cn3cccc(Nc4ccc(-c5cnc(C)o5)cc4)c3n2)c1 [Compound 40] | < 5.52 | 7.92 | 102 % Ctrl | 77 % Ctrl | pIC50 (Aβtotal [1]; [9]): < 5.52; pIC50 (Aβ42 [2]; [9]): 7.96
COc1ccc(C)c(-c2cn3cccc(Nc4ccc(-c5cnc(C)o5)c(F)c4)c3n2)c1 [Compound 41] | < 5.52 | 6.90 | 87 % Ctrl | 93 % Ctrl | –
Cc1cc2c(nc(-c3ccc(F)cc3)n2C)c(Nc2ccc(-c3cnc(C)o3)cc2)n1 [Compound 58] | < 5.00 | 6.62 | 105 % Ctrl | 89 % Ctrl | –
COc1cc(Nc2nc(C)cc3c2nc(-c2ccc(F)cc2)n3C)ccc1-c1cnc(C)o1 [Compound 59] | < 5.52 | 7.14 | 95 % Ctrl | 97 % Ctrl | –
COc1cccc(-c2nc3c(Nc4ccc(-c5cnc(C)o5)c(OC)c4)cccc3n2C)c1 [Compound 63] | < 5.52 | 7.96 | 90 % Ctrl | 56 % Ctrl | –
COc1cc(Nc2ccc(-c3cnc(C)o3)c(OC)c2)c2nc(-c3ccc(F)cc3)n(C)c2c1 [Compound 95] | < 5.52 | 7.64 | 88 % Ctrl | 47 % Ctrl | –
COc1cccc(-c2nc3c(Nc4ccc(-c5cnc(C)o5)c(OC)c4)nc(C)cc3n2C)c1 [Compound 97] | < 5.52 | 7.68 | 102 % Ctrl | 71 % Ctrl | –
Cc1ncc(-c2ccc(Nc3cc(C(F)(F)F)cc4c3nc(-c3ccc(F)cc3)n4C)cn2)o1 [Compound 101] | – | – | 92 % Ctrl | 77 % Ctrl | pIC50 (Aβtotal [5]): < 5.00; pIC50 (Aβ42 [6]): 7.34
COc1cc(Nc2cc(F)cc3c2nc(N2CCCC2)n3C)ccc1-c1cnc(C)o1 [Compound 104] | – | – | 97 % Ctrl | 110 % Ctrl | pIC50 (Aβtotal [5]): < 5.00; pIC50 (Aβ42 [6]): 6.30
COc1cc(Nc2cc(C(F)(F)F)cn3cc(C(C)=O)nc23)ccc1-c1ocnc1C [Compound 165] | – | – | – | – | melting point: 183.6 °C; pIC50 (Aβtotal [1]; [7]): < 4.52; pIC50 (Aβ42 [2]; [7]): 6.54
Cc1ncc(-c2ccc(Nc3cccn4c(C(C)C)c(-c5ccc(F)cc5)nc34)cc2)o1 [Compound 175] | – | – | – | – | melting point: 157.2 °C; pIC50 (Aβtotal [1]; [7]): < 5.52; pIC50 (Aβ42 [2]; [7]): 7.48
Cc1cn2cc(Br)nc(Nc3ccc(-c4cnc(C)o4)cc3)c2n1 [Compound 179] | – | – | – | – | melting point: 200.1 °C; pIC50 (Aβtotal [1]; [7]): < 5.52; pIC50 (Aβ42 [2]; [7]): < 5.52

Continued, in another order:

pIC50 (Aβtotal [1]; [10]) | pIC50 (Aβ42 [2]; [10]) | SMILES | Aβtotal (% Ctrl)_Mean (Aβtotal [3]) | Aβ42 (% Ctrl)_Mean (Aβ42 [4]) | further results
< 5.00 | 7.46 | COc1cc(Nc2cc(C(F)(F)F)cc3c2nc(-c2ccc(F)cc2)n3C)ccc1-c1cnc(C)o1 [Compound 30] | 92 % Ctrl | 96 % Ctrl | –
< 5.00 | 6.31 | COc1cc(Nc2nccc3c2nc(-c2ccc(F)cc2F)n3C)ccc1-c1ocnc1C [Compound 54] | 104 % Ctrl | 101 % Ctrl | –
< 5.00 | 6.60 | COc1cc(Nc2cc(C(F)(F)F)cn3cc(C)nc23)ccc1-c1ocnc1C.Cl.Cl [Compound 141] | 89 % Ctrl | 87 % Ctrl | –
< 5.00 | 7.09 | COc1cc(Nc2cc(F)cn3cc(CC(C)C)nc23)ccc1-c1ocnc1C.Cl [Compound 157] | 100 % Ctrl | 77 % Ctrl | –
< 5.52 | < 5.52 | Cc1ncc(-c2ccc(Nc3cc(C(F)(F)F)cn4cc(C(=O)N(C)C)nc34)cc2F)o1 [Compound 181] | 105 % Ctrl | 104 % Ctrl | –
